In US20110263668A1, “Beta 3-Adrenoreceptor Agonists for the Treatment of Cardiac Hypertrophy and Heart Failure” (THE JOHNS HOPKINS UNIVERSITY, priority 2009, published 2011):

Tested on: β3−/− and WT mice with transverse aortic constriction (TAC)
Test: Echocardiography in β3−/− and WT mice after TAC with BH4 in the diet
Assay type: in vivo, mouse
Details: BH4 200 mg/kg/day in soft diet
Experimental: Experimental Model. Baseline echocardiography was performed on 8-week, 4-month, and 14-18 month-old homozygous β3^−/− mice (n=57 total, original breeding pairs kindly provided by Dr. Bradford Lowell (Klein et al. (1999)) and age-matched FVB background WT controls (n=13, Jackson Laboratories, Bar Harbor, Me.). Transverse aortic constriction (TAC) was performed on 8-week-old male β3^−/− (n=21) and age-matched male WT controls (n=24) as previously described (Takimoto et al. (2005)). Briefly, after anesthesia with isoflurane (2%), the chest was opened through a small thoracic window between ribs 2 and 4, and a 25 G needle placed on the transverse aorta. This needle size was chosen to elicit a milder response as initial studies using a standard TAC model (27 G needle) led to pulmonary edema and 100% early mortality in β3^−/− mice. The band was secured using a 7.0 prolene suture, the needle was then removed and the chest closed. Twelve animals per strain underwent sham surgery. To measure pressure changes after TAC, pressure volume loops were obtained using a Millar micromanometer catheter as previously described (Barouch et al. (2002)). Animals were sacrificed 3 or 9 weeks after TAC and myocardial tissue preserved in 10% formalin or snap-frozen in liquid nitrogen for subsequent analysis. To determine whether there were any differences in proximal pressures after TAC between strains, a 1.4 F pressure catheter (Millar Instruments, Houston, Tex.) was advanced into the ascending aorta from the LV, and pressures recorded before and after TAC. […] In vivo cardiac geometry and function were serially assessed by transthoracic echocardiography (Acuson Sequoia C256, 13 MHz transducer; Siemens) in conscious mice. M-mode LV end-systolic and end-diastolic cross-sectional diameter (LVESD, LVEDD), and the mean of septal and posterior wall thicknesses were determined from an average of 3-5 cardiac cycles. LV fractional shortening (% FS) and LV mass were determined using a cylindrical model as previously described (Barouch et al. (2003)).

## C[C@H](O)[C@H](O)[C@H]1CNc2nc(N)[nH]c(=O)c2N1 [BH4, tetrahydrobiopterin]
WT-TAC/BH4, 3 weeks of TAC
  change in fractional shortening: −1.8±3.0%
β3−/− TAC/BH4, 3 weeks of TAC
  change in fractional shortening: −0.4±0.2%
  increase in calculated LV mass: +15.0±6.8%
